We go through 20 molecules from BindingDB's records for doi:10.1016/j.bmcl.2003.10.007 (Inotek Pharmaceuticals, 2003).

Where a name gives a salt, the structure may show the parent alone. Bounds are passed on as bounds.

This assay is described as follows: Tested for inhibition of poly(ADP-ribose) polymerase-1 (PARP-1) in mouse using Cell protection assay.
A word on the IC50: it is the concentration that inhibits the measured activity by half. On to `CN1CCN(CCC(=O)Nc2cccc3c2CNC3=O)CC1` [3-(4-Methyl-piperazin-1-yl)-N-(1-oxo-2,3-dihydro-1H-isoindol-4-yl)-propionamide], for which the IC50 was above 30 µM.
To `Nc1ncnc2c1ncn2C1O[C@H](CNC(=O)CCC(=O)Nc2cccc3c2CNC3=O)[C@@H](O)[C@H]1O` (stereo not given in full) belongs 0.1 µM; to `Nc1ncnc2c1ncn2C1OC(CNC(=O)CCC(=O)Nc2cccc(-c3ccccc3)c2)[C@@H](O)[C@H]1O` (stereo partly drawn) [N-[(3S,4R)-5-(6-Amino-purin-9-yl)-3,4-dihydroxy-tetrahydro-furan-2-ylmethyl]-N'-biphenyl-3-yl-succinamide], 5 µM; to `Nc1ncnc2c1ncn2C1O[C@H](C(=O)N2CCNCC2)[C@@H](O)[C@H]1O` (stereo not given in full), above 300 µM.
`CNCC(=O)Nc1cccc2c1CNC2=O` [2-Methylamino-N-(1-oxo-2,3-dihydro-1H-isoindol-4-yl)-acetamide]: the IC50 was above 30 µM.
With `Nc1ncnc2c1ncn2[C@@H]1O[C@H](C(=O)N2CCN(CC(=O)Nc3cccc4c3CNC4=O)CC2)[C@@H](O)[C@H]1O` [2-(4-((2S,3S,4R,5R)-5-(6-amino-9H-purin-9-yl)-3,4-dihydroxytetrahydrofuran-2-carbonyl)piperazin-1-yl)-N-(1-oxoisoindolin-4-yl)acetamide], the midpoint of inhibition, the IC50, lay at 0.045 µM.
In turn, `O=C(CN1CCNCC1)Nc1cccc2c1CNC2=O` [N-(1-Oxo-2,3-dihydro-1H-isoindol-4-yl)-2-piperazin-1-yl-acetamide; hydrochloride] registered an IC50 of 18 µM.
For the molecule `Nc1ncnc2c1ncn2C1O[C@H](CNC(=O)CC(=O)Nc2cccc3c2CNC3=O)[C@@H](O)[C@H]1O` (stereo not given in full), the IC50 came to 1.9 µM.
To `CN1CCN(CC(=O)Nc2cccc3c2CNC3=O)CC1` [2-(4-Methyl-piperazin-1-yl)-N-(1-oxo-2,3-dihydro-1H-isoindol-4-yl)-acetamide] belongs above 30 µM.
As for `Nc1ncnc2c1ncn2C1O[C@H](CNC(=O)CCCCCC(=O)Nc2cccc3c2CNC3=O)[C@@H](O)[C@H]1O` (stereo not given in full), the figure is 3 µM.
`CNc1ncnc2c1ncn2CC(=O)Nc1cccc2c1CNC2=O` [2-(6-Methylamino-purin-9-yl)-N-(1-oxo-2,3-dihydro-1H-isoindol-4-yl)-acetamide]: half-maximal inhibition (IC50) required 3 µM.
To `O=C(CCCCCCC(=O)Nc1cccc2c1CNC2=O)NC[C@H]1OC(n2cnc3c(=O)[nH]cnc32)[C@H](O)[C@@H]1O` (stereo not given in full) belongs 68 µM; to `O=C1N=Cc2ccccc21` [Isoindol-1-one], 30 µM; to `Nc1cccc2c1CNC2=O` [4-Amino-2,3-dihydro-isoindol-1-one], 30 µM.
As for `Nc1ncnc2c1ncn2C1O[C@H](CNC(=O)CCCCCCC(=O)Nc2cccc3c2CNC3=O)[C@@H](O)[C@H]1O` (stereo not given in full), the IC50 was determined as 0.7 µM.
As for `O=C(CN1CCOCC1)Nc1cccc2c1CNC2=O` [2-Morpholin-4-yl-N-(1-oxo-2,3-dihydro-1H-isoindol-4-yl)-acetamide], the figure is above 30 µM; as for `Nc1ncnc2c1ncn2C1O[C@H](CNC(=O)/C=C/c2ccc(C(=O)Nc3cccc4c3CNC4=O)cc2)[C@@H](O)[C@H]1O` (stereo not given in full), 10 µM.
To `Nc1ncnc2c1ncn2C1O[C@H](CNC(=O)CCCCCCCC(=O)Nc2cccc3c2CNC3=O)[C@@H](O)[C@H]1O` (stereo not given in full) belongs 2 µM; to `O=C(Cn1cnc2ccccc21)Nc1cccc2c1CNC2=O` [2-Benzoimidazol-1-yl-N-(1-oxo-2,3-dihydro-1H-isoindol-4-yl)-acetamide], 3 µM.
On to `CCNCC(=O)Nc1cccc2c1CNC2=O` [2-Ethylamino-N-(1-oxo-2,3-dihydro-1H-isoindol-4-yl)-acetamide], for which the IC50 was 18 µM.
